Patent US20220175717A1, “PHENPROCOUMON TTS” (LTS LOHMANN THERAPIE-SYSTEME AG, priority 2019, published 2022)

Experiments:
[1] = once absorbed by the body; cited from earlier work
[2] = Saturation concentration Cs of phenprocoumon in polymer matrices (sandwich method of Liu); format: physicochemical; conditions: for Cs of phenprocoumon: 7 days at room temperature
Protocol: The saturation concentration Cs of phenprocoumon was determined in various polymer matrices according to the method of Liu (Liu, P., Gargiulo, P., Wong, J., and Novartis (1997). A Novel Method for Measuring Solubility of a Drug in an Adhesive. Pharmaceutical Research 14, p. 317). In this method, known among experts as the “sandwich” method, the saturation concentration is determined as follows: A laminate is built up with the following sequence of layers: protective film—donor layer with active substance (dissolved and undissolved)—active-substance-permeable membrane—acceptor layer without active substance—protective film. The two protective films consist of identical material; the matrix material of the donor layer and acceptor layer is also identical. The donor layer is prepared by dissolving the active substance in a solution of the polymer in organic solvent. In this process, the concentration of the active substance must be chosen to be high enough that an undissolved residue is visible in the polymer matrix, so that the saturation concentration Cs in the donor layer is safely exceeded. This solution is spread on the protective film and the process solvent is evaporated. Then, the adhesive surface of the donor layer is covered with the membrane. The membrane used is a dialysis tube made of regenerated cellulose (ZelluTrans, from Roth, 46 mm flat width), which has been cut open lengthwise. The acceptor layer is produced analogously to the donor layer without active substance and is applied to the other side of the membrane. The laminates produced in this way are then stored at room temperature for 7 days, during which diffusion of the active substance through the membrane into the acceptor layer occurs. Subsequently, the active substance concentration in the donor layer is determined. For this purpose, aliquots of approx. 1 cm^2 are punched using a punching tool with a standardised surface area. The membrane is then removed, the punched pieces without membrane are weighed, and their weight is documented (m1). Then, the punched pieces are placed in organic solvent to dissolve the matrices. The backing layers are removed, washed and dried and their weight (m2) is determined. From both measured values, the weight of the polymer portion of the […] m3 is obtained as follows: m3=m1−m2 Subsequently, the concentration of phenprocoumon is determined in the solution using HPLC, and its concentration in the donor layer is calculated. The saturation concentrations of phenprocoumon in different polymer matrices determined according to this experimental approach are summarised in Table 1: […]

[3] = Solubility of phenprocoumon in process solvents; format: physicochemical
Protocol: Since toluene polysiloxane solution is not commercially available, BIO PSA 4201 from Dow Chemicals (polysiloxane in n-heptane) was used as starting material. The solvent was evaporated off and the rubbery polymeric residue was dissolved with enough toluene to obtain a solution with approx. 75% solids.

CCC(c1ccccc1)c1c(O)c2ccccc2oc1=O (stereo not drawn) [phenprocoumon, Phenprocoumon]
biological half-life [1]: up to 160 hours | Cs of phenprocoumon ([2]; in acrylate copolymer of 2-ethylhexyl acrylate, vinyl acetate and 2-hydroxyl ethyl acrylate, ethyl acetate): 6.11% | Cs of phenprocoumon ([2]; in acrylic copolymer of 2-ethylhexyl acrylate, butyl acrylate, vinyl acetate, acrylic acid, ethyl acetate): 7.26% | saturation concentration Cs of phenprocoumon ([2]; in neutral polymers (text summary of Table 1)): > 5% | Cs of phenprocoumon ([2]; in polyisobutylene, polymer dissolved in toluene): 2.8% | Cs of phenprocoumon ([2]; in polysiloxane, ethyl acetate): 0.3% | Cs of phenprocoumon ([2]; in styrene-isoprene-styrene block copolymer, polymer dissolved in toluene): 3.9% | solubility ([3]; in aromatic hydrocarbons): sufficiently soluble | solubility ([3]; in n-heptane): not in n-heptane
